According to patent US6750222B2, “Substituted phenyl derivatives” (Bayer CropScience GmbH, priority 2001, dated 2004):

What was measured:
[1] = test system: Sinapis alba, Chrysanthemum segetum, Avena sativa, Stellaria media, Echinochloa crus-galli, Lolium multiflorum, Setaria spp., Abutilon theophrasti, Amaranthus …; assay: Pre-emergence effect on weeds (greenhouse pot test); assay type: in vivo, monocotyledonous and dicotyledonous weed plants; settings: application rate of 2 kg and less of active substance per hectare; scored visually after 3 to 4 weeks by comparison with untreated controls
From the text: 1. Pre-Emergence Effect on Weeds
Seeds or rhizome pieces of monocotyledonous and dicotyledonous weed plants were placed in sandy loam soil in cardboard pots and covered with soil. The compounds according to the invention which were formulated in the form of wettable powders or emulsion concentrates were then applied to the surface of the soil cover in the form of aqueous suspensions or emulsions at an application rate of 600 to 800 l of water/ha (converted), in various dosages.
After the treatment, the pots were placed in a greenhouse and kept under good growth conditions for the weeds. After the test plants had emerged, the damage to the plants or the negative effect on the emergence was scored visually after a test period of 3 to 4 weeks by comparison with untreated controls. As shown by the test results, compounds according to the invention have good herbicidal pre-emergence activity against a broad spectrum of weed grasses and broad-leafed weeds.

[2] = test system: Sinapis alba, Echinochloa crus-galli, Lolium multiflorum, Chrysanthemum segetum, Avena sativa, Stellaria media, Setaria spp., Abutilon theophrasti, Amaranthus …; assay: Post-emergence effect on weeds (greenhouse pot test); assay type: in vivo, monocotyledonous and dicotyledonous weeds; settings: application rate of 2 kg and less of active substance per hectare; treated at three-leaf stage; scored visually after about 3 to 4 weeks by comparison with untreated controls
Procedure: 2. Post-Emergence Effect on Weeds
Seeds or rhizome pieces of monocotyledonous and dicotyledonous weeds were placed in sandy loam soil in plastic pots, covered with soil and grown in a greenhouse under good growth conditions. Three weeks after sowing, the test plants were treated at the three-leaf stage. The compounds according to the invention which were formulated as wettable powders or emulsion concentrates were sprayed, at various dosages, onto the green parts of the plants at an application rate of 600 to 800 l of water/ha (converted). After the test plants had remained in the greenhouse for about 3 to 4 weeks under ideal growth conditions, the effect of the preparations was scored visually by comparison with untreated controls. The agents according to the invention also have good herbicidal activity post-emergence against a broad spectrum of economically important weed grasses and broad-leafed weeds.

Structure (SMILES) | melting point [°C] | herbicidal activity against harmful plants pre-emergence [1] | herbicidal activity against harmful plants post-emergence [2]
Cn1nc(C(F)(F)F)cc1Oc1cc(C#N)cc(Oc2cc(C(F)(F)F)nn2C)c1 [Chemical Example 1, 3,5-Bis-(1-methyl-3-trifluoromethylpyrazol-5-yloxy)benzonitrile] | 139 |  | 
Cn1nc(C(F)(F)F)cc1Oc1cc(F)cc(C#N)c1 [Chemical Example 2, 3-Fluoro-5-(1-methyl-3-trifluoromethylpyrazol-5-yloxy)benzonitrile] | 84 |  | 
Cn1nc(C(F)(F)F)cc1Oc1cc(C#N)cc(-n2ccc(C(F)(F)F)n2)c1 [Chemical Example 5, 3-(1-Methyl-3-trifluoromethylpyrazol-5-yloxy)-5-(3-trifluoromethylpyrazol-1-yl)benzonitrile] | 116 to 117 |  | 
Cn1nc(C(F)(F)F)cc1Oc1cc(C#N)cc(Oc2cccc(C(F)(F)F)c2)c1 [Example 62a] |  | very good herbicidal activity | very good herbicidal activity
N#Cc1cc(Oc2cccc(C(F)(F)F)c2)cc(Oc2cccc(C(F)(F)F)c2)c1 [Example 62b] |  | very good herbicidal activity | very good herbicidal activity
N#Cc1cc(Oc2ccnc(C(F)(F)F)c2)cc(Oc2ccnc(C(F)(F)F)c2)c1 [Example 73d] |  | very good herbicidal activity | very good herbicidal activity
N#Cc1cc(Oc2csc(C(F)(F)F)c2)cc(Oc2csc(C(F)(F)F)c2)c1 [Example 74c] |  | very good herbicidal activity | very good herbicidal activity
Cn1nc(C(F)(F)F)cc1Oc1cc(C#N)cc(Oc2cc(C(F)(F)F)n(C)n2)c1 [Example 75a] |  | very good herbicidal activity | very good herbicidal activity
Cn1nc(C(F)(F)F)cc1Oc1cc(C#N)cc(Oc2cc(C(F)(F)F)nn2C)c1 [Example 76a] |  | very good herbicidal activity | very good herbicidal activity
Cn1nc(C(F)(F)F)cc1Oc1cc(Oc2cc(C(F)(F)F)nn2C)cc(C(N)=O)c1 [Example 77a] |  | very good herbicidal activity | very good herbicidal activity
Cn1nc(C(F)(F)F)cc1Oc1cc(Oc2cc(C(F)(F)F)nn2C)cc([N+](=O)[O-])c1 [Example 397a] |  | very good herbicidal activity | very good herbicidal activity
Cn1nc(C(F)(F)F)cc1Oc1cc(F)cc(C#N)c1 [Example 1136a] |  | very good herbicidal activity | very good herbicidal activity
N#Cc1cc(F)cc(Oc2csc(C(F)(F)F)c2)c1 [Example 1136c] |  | very good herbicidal activity | very good herbicidal activity
Cn1nc(C(F)(F)F)cc1Oc1cc(C#N)cc(C#N)c1 [Example 1140a] |  | very good herbicidal activity | very good herbicidal activity
N#Cc1cc(C#N)cc(Oc2csc(C(F)(F)F)c2)c1 [Example 1140c] |  | very good herbicidal activity | very good herbicidal activity
N#Cc1cc(C#N)cc(Oc2ccnc(C(F)(F)F)c2)c1 [Example 1140d] |  | very good herbicidal activity | very good herbicidal activity
Cn1nc(C(F)(F)F)cc1Oc1cc(F)cc([N+](=O)[O-])c1 [Example 1156a] |  | very good herbicidal activity | very good herbicidal activity
Cn1nc(C(F)(F)F)cc1Oc1cc(C#N)cc(-n2ccc(C(F)(F)F)n2)c1 [Example 1161a] |  | very good herbicidal activity | very good herbicidal activity
CC(C)OCCOc1cc(C#N)cc(Oc2cc(C(F)(F)F)nn2C)c1 [Example 1169a] |  | very good herbicidal activity | very good herbicidal activity
CCOCCOCCOc1cc(C#N)cc(Oc2cc(C(F)(F)F)nn2C)c1 [Example 1171a] |  | very good herbicidal activity | very good herbicidal activity
COCCCOc1cc(C#N)cc(Oc2cc(C(F)(F)F)nn2C)c1 [Example 1177a] |  | very good herbicidal activity | very good herbicidal activity
Cn1nc(C(F)(F)F)cc1Oc1cc(C#N)cc(OCC2CCCO2)c1 (stereo not shown) [Example 1180a] |  | very good herbicidal activity | very good herbicidal activity
Cn1nc(C(F)(F)F)cc1Oc1cc(C#N)cc(OCC2COC(C)(C)O2)c1 (stereo not shown) [Example 1182a] |  | very good herbicidal activity | very good herbicidal activity
